Reference: patent publication US7217548B2, “N-acetylglucosaminlytransferase and polynucleotide encoding the same” (National Institute of Advanced Industrial Science and …, priority 2000, dated 2007)
Entries after “also recorded” stand apart in the source; their conditions may differ. Read-outs that look alike come from different tables or passages of the source. Each block holds one molecule with its values, some of them ahead of it. Peptide text beside a SMILES is read from it. * marks the point of attachment. αMan = OC[C@H]1O[C@H](*)[C@@H](O)[C@@H](O)[C@@H]1O

Assays:
[1] = biological target: T1, OMGnT derived from a newborn rat brain (Rattus norvegicus, UniProt Q5XIN7); assay: Divalent cation requirement for OMGnT activity; type: biochemical; details: for effect on OMGnT activity relative to Mn2+: 10 mM for each divalent cation; for Relative activity of OMGnT (%): each additive 10 mM, activity with 10 mM MnCl2 taken as 100%
T1 construct: from tissue; host or cells: newborn rat brain

[2] = biological target: T2, His-Xpress-sOMGnT(S) (Homo sapiens, UniProt Q8WZA1, M623V); assay: Substrate specificity and kinetic parameters of solubilized human OMGnT enzyme (S); type: biochemical; details: for OMGnT relative activity (%) His-Xpress-sOMGnT(S): as sugar receptor, activity with Man-peptide regarded as 100%
T2 construct: Ig kappa chain secretory signal (N); made in house; host or cells: HEK293T (transient, secreted into serum-free medium)
T2 sequence (Q8WZA1 247-660 M623V): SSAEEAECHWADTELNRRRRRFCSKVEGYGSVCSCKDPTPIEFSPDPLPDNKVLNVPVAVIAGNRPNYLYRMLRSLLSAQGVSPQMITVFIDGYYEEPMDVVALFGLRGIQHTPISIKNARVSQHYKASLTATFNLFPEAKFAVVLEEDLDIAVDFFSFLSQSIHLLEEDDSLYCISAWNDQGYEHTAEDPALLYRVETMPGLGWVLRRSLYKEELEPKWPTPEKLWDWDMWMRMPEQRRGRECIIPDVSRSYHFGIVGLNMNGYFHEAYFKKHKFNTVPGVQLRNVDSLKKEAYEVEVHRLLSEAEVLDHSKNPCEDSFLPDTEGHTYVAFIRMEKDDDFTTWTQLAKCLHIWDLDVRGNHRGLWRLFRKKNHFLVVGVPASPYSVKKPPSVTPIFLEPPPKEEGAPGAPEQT
Procedure: (§1) […] […] The reaction mixture was then filtered with a filter Ultrafree-MC (Millipore) having a pore size of 0.22 μm to remove solids, and analyzed by Wakopak 5C18-200 column (4.6×250 mm, Wako Pure Chemical Industries, Ltd.). The separation was carried out using concentration gradient with Solution A and Solution B at a flow rate of 1.0 ml/min. […] Peptide detection was carried out at 214 nm, and the radioactivity of each fraction was assayed using a liquid scintillation counter.
(§2) The activity of GnT-1 was assayed with a method by Yoshida et al. [Yoshida, S., Suzuki, M., Yamano, S., Takeuchi, M., Ikenaga, H., Kioka, N., Sakai, H., and Komano, T., Glycobiology, (1999), 9, 53–58] as described below. A 20 μl reaction solution was prepared by adding an enzyme source thereto so as to have a final concentration of 100 mM MES (pH 6.0), 20 mM MnCl2, 5 μM Manα1–6(Manα1–3)Manα1–6(Manα1–3)Manβ1–4GlcNAcβ1–4GlcNAc-PA(M5GN2-PA; Takara Shuzo, PA-Sugar Chain 017), 1 mM UDP-GlcNAc, 100 mM GlcNAc, 5 mM AMP, 1% Triton X-100, and 0.2% BSA. The reaction solution was incubated at 37° C. for 1 hour, and the reaction was terminated in boiling water. Thereafter, the reaction solution was analyzed by a reverse phase HPLC (Cosmosil 5C18-AR column) available from Nacalai Tesque.
(§3) When Manα1–6(Manα1–3)Manβ1–4GlcNAcβ1–4GlcNAc-PA (M3GN2-PA; Takara Shuzo, PA-Sugar Chain 016) was used as a sugar receptor, the same method was employed for analysis.

[3] = biological target: T3, His-Xpress-sOMGnT(L) (Homo sapiens, UniProt Q8WZA1, M623V); assay: Substrate specificity and kinetic parameters of solubilized human OMGnT enzyme (L); type: biochemical; details: for OMGnT relative activity (%) His-Xpress-sOMGnT(L): as sugar receptor, activity with Man-peptide regarded as 100%
T3 construct: 595 amino acids from 66: Ser thereof (66: Ser to 660: Thr), respectively; Ig kappa chain secretory signal (N); made in house; host or cells: HEK293T (transient, secreted into serum-free medium)
Procedure: as §1, §2, §3

[4] = tested on: OMGnT; assay: Substrate specificity of OMGnT expressed in animal cells (summary of properties); type: biochemical, human; details: reactivity toward mannosylnanopeptide regarded as 100%
Text: The biochemical properties of the OMGnT: an enzyme protein massively expressed in animal cells as described above are as follows.

[5] = biological target: T4, GnT-I (Homo sapiens, UniProt P26572); assay: GnT-I activity assay of solubilized enzymes; type: biochemical; details: method of Reference Example 2
T4 construct: Ig kappa chain secretory signal (N); made in house; host or cells: HEK293T (transient, secreted into serum-free medium)
T4 sequence (P26572 39-445 limits assumed): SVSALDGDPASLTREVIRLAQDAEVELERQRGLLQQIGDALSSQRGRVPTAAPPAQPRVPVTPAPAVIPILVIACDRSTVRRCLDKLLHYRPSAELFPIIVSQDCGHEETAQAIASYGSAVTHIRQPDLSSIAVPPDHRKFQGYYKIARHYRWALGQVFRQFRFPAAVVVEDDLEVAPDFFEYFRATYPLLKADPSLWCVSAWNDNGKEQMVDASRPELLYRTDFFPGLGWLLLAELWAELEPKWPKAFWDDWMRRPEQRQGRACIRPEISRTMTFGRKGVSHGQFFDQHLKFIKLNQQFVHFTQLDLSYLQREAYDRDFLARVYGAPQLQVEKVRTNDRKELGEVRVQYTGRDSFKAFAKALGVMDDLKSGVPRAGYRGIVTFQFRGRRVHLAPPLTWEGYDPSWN
Procedure: as §2, §3

[6] = tested on: OMGnT; assay: OMGnT activity in serum-free medium of HEK293T cells expressing solubilized enzymes; type: biochemical, human; details: serum-free medium of HEK293T transfectants
Procedure: (§4) The enzyme solution was added to 140 mM MES [2-(N-morpholino) ethanesulfonic acid] buffer (pH 7.0) containing 0.4 mM Man-peptide, 0.2 mM UDP-[^3H]GlcNAc (up to 228,000 dpm/nmol), 10 mM MnCl2, 5 mM AMP, 200 mM GlcNAc, 2%(w/v) Triton X-100, 10% glycerol, 2 μg/ml antipain, 2 μg/ml chymostatin, 3 μg/ml pepstatin A, 2 μg/ml leupeptin, 1 mM benzamidine-HCl, and 1 mM PMSF (phenylmethylsulfonyl fluoride) to prepare 50 μl of reaction solution. After the reaction at 37° C. for 3 hours, the reaction was terminated by 3 minutes of boiling. The reaction mixture was then filtered with a filter Ultrafree-MC (Millipore) having a pore size of 0.22 μm to remove solids, and analyzed by Wakopak 5C18-200 column (4.6×250 mm, Wako Pure Chemical Industries, Ltd.). The separation was carried out using concentration gradient with Solution A and Solution B at a flow rate of 1.0 ml/min. […] Peptide detection was carried out at 214 nm, and the radioactivity of each fraction was assayed using a liquid scintillation counter.
Each secretory expression plasmid was transiently expressed in a HEK293T cell derived from human embryonic kidney. Usually, HEK293T cells were cultured in D-MEM (Gibco, #11995-065) containing 10% Fetal Calf Serum (Hyclone), 10 mM MEM Non-Essential Amino Acids solution (Gibco), 2 mM Glutamine (Gibco), and 100 units/ml Penicillin/100 μg/ml Streptomycin (Gibco). […]

[7] = biological target: T5, OMGnT (Homo sapiens, UniProt Q8WZA1, M623V); assay: OMGnT activity of microsomal fractions of HEK293T cells transfected with full-length human OMGnT plasmid; type: biochemical
T5 construct: a cDNA of approximately 2.0 kb encoding the full length of human OMGnT is inserted; expressed in transfected cells; host or cells: HEK293T
Procedure: as §4
The mixture was centrifuged for 10 minutes at 900×g, and then the obtained supernatant was centrifuged for 1 hour at 100,000×g, thereby obtaining a microsomal fraction as a precipitate. In the case of preparing solubilized enzyme, the precipitate was suspended in 140 mM MES buffer (pH 7.0) (referred to as solubilization buffer) containing 5 mM AMP, 200 mM GlcNAc, 2%(w/v) Triton X-100, 10% glycerol, 2 μg/ml antipain, 2 μg/ml chymostatin, 3 μg/ml pepstatin A, 2 μg/ml leupeptin, 1 mM benzamidine-HCl, and 1 mM PMSF(phenylmethylsulfonyl fluoride) and sonicated. Thereafter, the resultant was centrifuged for 1 hour at 100,000×g and the obtained supernatant was used.
The expression plasmid was transiently expressed in an HEK293T cell in the same manner as described in Example 3. 15 μg of plasmid was transfected to 50–70% confluent cells in a 10 cm petri dish. After overnight cultivation, the medium was changed. After a further 48-hour cultivation, cells were collected.
A microsomal fraction was prepared from cells by the method described in Example 2, and OMGnT activity of a soluble fraction and an insoluble fraction were assayed by the method described in Example 1.

T1 sequence (Q5XIN7 whole entry): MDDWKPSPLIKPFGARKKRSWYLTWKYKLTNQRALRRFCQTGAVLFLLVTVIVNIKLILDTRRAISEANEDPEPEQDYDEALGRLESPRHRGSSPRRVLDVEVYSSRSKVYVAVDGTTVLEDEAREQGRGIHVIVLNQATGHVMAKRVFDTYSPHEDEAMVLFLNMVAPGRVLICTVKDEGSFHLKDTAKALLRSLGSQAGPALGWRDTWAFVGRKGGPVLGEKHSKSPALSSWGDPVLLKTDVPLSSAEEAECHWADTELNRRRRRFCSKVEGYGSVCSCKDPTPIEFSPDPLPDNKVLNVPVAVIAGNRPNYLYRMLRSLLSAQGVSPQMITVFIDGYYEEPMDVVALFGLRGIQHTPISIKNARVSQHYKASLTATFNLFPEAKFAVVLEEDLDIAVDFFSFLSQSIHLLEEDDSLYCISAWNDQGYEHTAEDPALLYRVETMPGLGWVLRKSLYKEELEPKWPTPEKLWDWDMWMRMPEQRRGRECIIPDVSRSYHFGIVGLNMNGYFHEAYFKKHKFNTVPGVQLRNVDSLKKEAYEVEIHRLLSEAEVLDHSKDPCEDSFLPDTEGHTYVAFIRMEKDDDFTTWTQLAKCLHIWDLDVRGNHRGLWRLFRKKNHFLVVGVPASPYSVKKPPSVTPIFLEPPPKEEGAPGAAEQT
T3 sequence (Q8WZA1 66-660 M623V): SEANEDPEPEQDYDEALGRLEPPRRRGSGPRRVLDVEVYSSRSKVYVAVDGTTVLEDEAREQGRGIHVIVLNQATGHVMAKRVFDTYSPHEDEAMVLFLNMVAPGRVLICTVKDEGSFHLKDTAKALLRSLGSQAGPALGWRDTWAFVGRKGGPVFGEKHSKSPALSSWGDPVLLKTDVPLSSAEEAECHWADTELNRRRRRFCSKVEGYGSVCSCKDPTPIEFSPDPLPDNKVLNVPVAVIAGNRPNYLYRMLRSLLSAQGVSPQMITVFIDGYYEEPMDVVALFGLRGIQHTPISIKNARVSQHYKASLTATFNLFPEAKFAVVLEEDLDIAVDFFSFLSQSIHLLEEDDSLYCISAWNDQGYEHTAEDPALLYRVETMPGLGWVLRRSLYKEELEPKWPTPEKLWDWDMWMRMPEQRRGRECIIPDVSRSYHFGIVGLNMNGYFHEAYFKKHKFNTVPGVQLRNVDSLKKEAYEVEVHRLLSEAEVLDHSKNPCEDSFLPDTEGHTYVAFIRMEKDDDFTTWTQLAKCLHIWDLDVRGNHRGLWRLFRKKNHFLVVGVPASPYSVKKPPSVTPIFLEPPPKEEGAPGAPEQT
T5 sequence (Q8WZA1 whole entry M623V): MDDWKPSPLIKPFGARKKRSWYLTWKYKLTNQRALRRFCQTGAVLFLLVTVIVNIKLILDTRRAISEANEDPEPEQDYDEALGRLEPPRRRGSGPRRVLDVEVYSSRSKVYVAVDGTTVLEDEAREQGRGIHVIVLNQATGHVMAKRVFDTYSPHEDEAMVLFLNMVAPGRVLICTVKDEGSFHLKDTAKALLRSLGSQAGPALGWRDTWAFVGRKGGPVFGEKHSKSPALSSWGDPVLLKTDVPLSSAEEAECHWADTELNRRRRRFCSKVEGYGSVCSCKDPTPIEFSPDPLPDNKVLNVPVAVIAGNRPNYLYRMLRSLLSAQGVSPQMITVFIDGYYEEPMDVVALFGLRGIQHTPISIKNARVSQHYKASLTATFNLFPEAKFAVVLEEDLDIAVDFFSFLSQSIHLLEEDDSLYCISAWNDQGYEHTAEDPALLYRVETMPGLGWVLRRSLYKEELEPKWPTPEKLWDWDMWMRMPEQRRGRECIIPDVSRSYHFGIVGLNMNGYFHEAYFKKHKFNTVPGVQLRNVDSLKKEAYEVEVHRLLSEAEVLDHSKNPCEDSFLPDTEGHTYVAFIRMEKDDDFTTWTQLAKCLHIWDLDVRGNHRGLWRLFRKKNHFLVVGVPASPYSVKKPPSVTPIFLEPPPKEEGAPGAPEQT

OMGnT relative activity (%) His-Xpress-sOMGnT(S) [2]: 100%
OMGnT relative activity (%) His-Xpress-sOMGnT(L) [3]: 100%
Molecule: CC(=O)N[C@@H](C)C(=O)N[C@@H](C)C(=O)N1CCC[C@H]1C(=O)N[C@H](C(=O)N1CCC[C@H]1C(=O)N[C@H](C(=O)N[C@@H](C)C(=O)N[C@@H](C)C(=O)N1CCC[C@H]1C(N)=O)C(C)C)[C@@H](C)O[C@H]1O[C@H](CO)[C@@H](O)[C@H](O)[C@@H]1O [Man-peptide, Ac-Ala-Ala-Pro-Thr(Man)-Pro-Val-Ala-Ala-Pro-NH2] (Ac-AAPT(αMan)PVAAP-NH2)

concentration range at which the effect on OMGnT activity is the greatest [1]: 1 to 10 mM
Relative activity of OMGnT (%) [1]: 100%
Molecule: [Cl][Mn][Cl] [MnCl2]
effect on OMGnT activity (in words) ([1]; listed as Mn^2+): greatest effect; also recorded: maximum effect

GnT-I activity (in words) [5]: did not exhibit activity at all
Molecule: His-Xpress-sOMGnT(L): solubilized human OMGnT, 595 amino acids 66:Ser to 660:Thr, secreted from HEK293T; plasmid named in Table 3
OMGnT activity [6]: 15 pmol/hr/mg protein
OMGnT activity (in words) [6]: significantly high OMGnT activity

OMGnT relative activity (%) His-Xpress-sOMGnT(S) [2]: 0%
OMGnT relative activity (%) His-Xpress-sOMGnT(L) [3]: 0%
Molecule: Manα1–6(Manα1–3)Manα1–6(Manα1–3)Manβ1–4GlcNAcβ1–4GlcNAc-PA [M5GN2-PA]

OMGnT relative activity (%) His-Xpress-sOMGnT(S) [2]: 0%
OMGnT relative activity (%) His-Xpress-sOMGnT(L) [3]: 0%
Molecule: Manα1–6(Manα1–3)Manβ1–4GlcNAcβ1–4GlcNAc-PA [M3GN2-PA]

The next lines start with the molecule.

Molecule: [Ca+2].[Cl-].[Cl-] [CaCl2]
effect on OMGnT activity (in words) [1]: weak effect
effect on OMGnT activity relative to Mn2+ [1]: approximately 15%
Relative activity of OMGnT (%) [1]: 15%

Molecule: [Cl-].[Cl-].[Mg+2] [MgCl2]
effect on OMGnT activity relative to Mn2+ [1]: approximately 40%
Relative activity of OMGnT (%) [1]: 39%

Molecule: CC(=O)N[C@H]1[C@@H](OP(=O)(O)OP(=O)(O)OC[C@H]2O[C@@H](n3ccc(=O)[nH]c3=O)[C@H](O)[C@@H]2O)O[C@H](CO)[C@@H](O)[C@@H]1O [UDP-GlcNAc]
Km ([2]; 125 mM MOPS pH7.3, 0.4 mM Man-peptide, 7.5 mM MnCl2, 37° C., 2 hours, read-out: apparent Km value of His-Xpress-sOMGnT(S) toward UDP-GlcNAc): 570 µM
Km ([3]; 125 mM MOPS pH7.3, 0.4 mM Man-peptide, 7.5 mM MnCl2, 37° C., 2 hours, read-out: apparent Km value of His-Xpress-sOMGnT(L) toward UDP-GlcNAc): 730 µM

Molecule: O=[N+]([O-])c1ccc(O[C@H]2O[C@H](CO)[C@@H](O)[C@H](O)[C@@H]2O)cc1 [p-nitrophenyl Man, p-nitrophenyl mannose]
OMGnT relative activity (%) His-Xpress-sOMGnT(S) [2]: 0%
OMGnT relative activity (%) His-Xpress-sOMGnT(L) [3]: 0%
reactivity of the enzyme toward sugar receptor [4]: 0%

Molecule: OMGnT/pcDNA3.1zeo: expression plasmid for full-length human OMGnT (SEQ ID NO: 2), expressed in HEK293T; microsomal fractions assayed
OMGnT activity, times higher than control (no plasmid), insoluble fraction ([7]; insoluble fraction): ~140 times
OMGnT activity, Insoluble fraction ([7]; insoluble fraction of microsomal fraction, HEK293T): 243.9 pmol/hr/mg protein
OMGnT activity, times higher than control (no plasmid), soluble fraction ([7]; soluble fraction): about 120 times
OMGnT activity, Soluble fraction ([7]; soluble fraction of microsomal fraction, HEK293T): 182.7 pmol/hr/mg protein
OMGnT activity, Total ([7]; soluble plus insoluble fraction): 426.6 pmol/hr/mg protein
